Laboratory results taken from publication PMC10522932, “A broad inhibitor of acyl-acyl carrier protein synthetases” (Biochemistry and Biophysics Reports, 2023).

Columns and labels:
Assay in all cases: urea-PAGE gel shift of acyl-ACP, densitometry
Assay type in all cases: biochemical
[1] = target: T1, AasC (Chlamydia trachomatis, UniProt O84781); details: read-out: % inhibition at 1 mM
T1 construct: gene aas; His6-tagged (pET16b or pET29a, synthetic gene), E. coli BL21[DE3], Ni-NTA purified
T1 sequence (O84781 1-537): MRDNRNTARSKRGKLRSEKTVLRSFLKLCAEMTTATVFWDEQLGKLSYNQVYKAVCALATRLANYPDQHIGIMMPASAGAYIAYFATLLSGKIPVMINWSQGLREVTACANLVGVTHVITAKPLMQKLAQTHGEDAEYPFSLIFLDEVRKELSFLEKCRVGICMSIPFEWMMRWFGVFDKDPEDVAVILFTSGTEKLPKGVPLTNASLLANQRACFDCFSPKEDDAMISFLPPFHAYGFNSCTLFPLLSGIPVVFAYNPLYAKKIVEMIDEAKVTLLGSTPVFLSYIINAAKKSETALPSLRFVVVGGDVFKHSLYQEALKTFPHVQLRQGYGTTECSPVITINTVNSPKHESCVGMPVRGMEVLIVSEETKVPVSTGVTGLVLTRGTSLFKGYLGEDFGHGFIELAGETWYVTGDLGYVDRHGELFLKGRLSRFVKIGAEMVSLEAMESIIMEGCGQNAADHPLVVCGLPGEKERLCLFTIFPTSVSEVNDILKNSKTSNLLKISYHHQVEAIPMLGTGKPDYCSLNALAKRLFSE

[2] = target: T2, VhAasS (Vibrio harveyi, UniProt Q00IB3); details: read-out: % inhibition at 1 mM
T2 construct: gene aasS; His6-tagged, E. coli BL21[DE3], Ni-NTA purified; soluble enzyme
T2 sequence (Q00IB3 1-533): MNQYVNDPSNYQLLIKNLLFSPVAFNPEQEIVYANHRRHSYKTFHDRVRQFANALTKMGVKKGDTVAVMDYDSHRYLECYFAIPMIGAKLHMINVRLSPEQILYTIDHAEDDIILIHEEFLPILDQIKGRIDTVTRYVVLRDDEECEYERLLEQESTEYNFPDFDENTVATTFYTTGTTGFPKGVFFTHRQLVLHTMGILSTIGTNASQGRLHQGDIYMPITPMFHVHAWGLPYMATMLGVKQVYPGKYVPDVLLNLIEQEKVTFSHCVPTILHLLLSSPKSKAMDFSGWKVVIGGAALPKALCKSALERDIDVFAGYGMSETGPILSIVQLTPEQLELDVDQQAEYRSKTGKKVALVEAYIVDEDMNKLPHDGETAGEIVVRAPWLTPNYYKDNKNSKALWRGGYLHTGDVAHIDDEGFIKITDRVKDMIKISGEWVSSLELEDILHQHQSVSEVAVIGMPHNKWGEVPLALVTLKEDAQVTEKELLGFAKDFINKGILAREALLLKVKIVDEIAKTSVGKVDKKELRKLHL

[3] = target: T2, VhAasS; details: holo-EcACP 30 uM, decanoic acid 1 mM, ATP 10 mM, MgCl2 12.5 mM, TCEP 2.5 mM, enzyme 2 uM, pH 7.5, 37 C, 24 h
[4] = target: T1, AasC; details: holo-EcACP 30 uM, decanoic acid 1 mM, ATP 10 mM, MgCl2 12.5 mM, TCEP 2.5 mM, enzyme 50 uM, pH 7.5, 37 C, 24 h

SMILES | inhibition at 1000 µM [1] [%] | inhibition at 1000 µM [2] [%] | urea-PAGE gel shift of acyl-ACP, densitometry [3] | urea-PAGE gel shift of acyl-ACP, densitometry [4]
CCCCCCCCCC(=O)NS(=O)(=O)OC[C@H]1O[C@@H](n2cnc3c(N)ncnc32)[C@H](O)[C@@H]1O [C10-AMS] | 100 | 100 | – | –
CCCCCCCCCC(=O)O [decanoic acid] | – | – | All AasS enzymes tested were able to load C10 onto EcACP | All AasS enzymes tested were able to load C10 onto EcACP
